# Literature values in patent US20080227642A1, “Salts, aqueous liquid compositions containing salts of abscisic acid analogs and methods of their preparation” (priority 2007, published 2008).
# Settings: room temperature
compound,measurement,value
"CC1=CC(=O)CC(C)(C)[C@@]1(O)/C=C/C(C)=C\C(=O)O [(S)-(+)-abscisic acid, 2-cis-,4-trans-(S)-(+)-abscisic acid]",highest concentration that can be achieved in pure water,about 3000 ppm
